Where two headings read alike, the source gives them in different places. Where a SMILES comes first, the peptide text is derived from it. [ ]: non-standard residue; d: D form. The star is where a group is joined. Arachidoyl = CCCCCCCCCCCCCCCCCCCC(=O)*; Palmitoyl = CCCCCCCCCCCCCCCC(=O)*; hPhe = N[C@@H](CCc1ccccc1)C(=O)O

The target in experiment [1] is T1, DENV protease (Dengue virus type 2, UniProt P29990).
T1 construct: The virus-encoded dengue protease comprises the amino-terminal 180 amino acids of NS3 (NS3pro) of the polyprotein
As to the kind of experiment: biochemical. Conditions: read-out: inhibition of DENV. Summed up:
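DENV protease (100 nM) was pre-incubated 15 min with inhibitors in 50 mM Tris-HCl pH 9.0, 10% ethylene glycol, 0.0016% Brij 58. FRET substrate (50 μM final) started the reaction, monitored 15 min as RFU/s slope. IC50 came from triplicate means versus concentration.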

Experiment [2] addresses T2, WNV protease (West Nile virus, UniProt P06935).
T2 construct: a trypsin-like serine protease domain in the N-terminal region of the flaviviral NS3 proteins
As to the kind of experiment: WNV protease assay (analogous procedure). Format: biochemical. Conditions: for inhibition at 1 µM: read-out: inhibition of WNNV. On the procedure: (§1) By catalytic activity of the protease, the cleaved substrate results in increased fluorescence that can be monitored using a BMG Labtech Fluostar OPTIMA Microtiter fluorescence plate reader (excitation wavelength of 320 nm and a monitored emission wavelength of 405 nm). Dilutions were made starting from 10 mM stock solutions in DMSO and final concentrations were measured in triplicates. The inhibitors were preincubated for 15 min with DENV protease (100 nM) in the assay buffer (50 mM Tris-HCl pH 9.0, ethylene glycol (10% v/v), and 0.0016% Brij 58). The enzymatic reaction was initiated by the addition of the FRET substrate (final concentration 50 μM) to obtain a final assay volume of 100 μL per well. The enzymatic activity was monitored for 15 min and determined as a slope of relative fluorescence units per second (RFU/s) for each concentration. The mean of the triplicates were plotted against the corresponding concentration in CDDVault to determine the IC50-values. Analogous procedures were used to determine the inhibitory potency on WNV (Kühl et al., J. Med. Chem. 2020, 63 (15): 8179-8197) and ZIKA protease (Nitsche et al., ACS Med. Chem. Lett. 2019 Feb. 14; 10 (2): 168-174). For selectivity screening of active candidates, similar biochemical assays with human serine proteases trypsin (Weigel et al., J. Med. Chem. 2015, 58 (19), 7719-7733.) and/or thrombin (Nitsche et al., J. Med. Chem. 2013, 56 (21), 8389-8403) were used.

In experiment [3] the target is T3, ZIKA protease (Zika virus, UniProt Q32ZE1).
T3 construct: a trypsin-like serine protease domain in the N-terminal region of the flaviviral NS3 proteins
As to the kind of experiment: biochemical. Conditions: for inhibition at 1 µM / inhibition at 50 µM: read-out: inhibition of ZIKV. The procedure:
as §1

Experiment [4] concerns the target human Thrombin (Homo sapiens, UniProt P00734). As to the kind of experiment: Selectivity screening, human serine protease thrombin. The experiment is classed as biochemical. Conditions: read-out: inhibition of human Thrombin. On the procedure:
as §1

In experiment [5] the target is human Trypsin (Homo sapiens, UniProt P07477). As to the kind of experiment: Selectivity screening, human serine protease trypsin. The experiment is classed as biochemical. Conditions: read-out: inhibition of human Trypsin. On the procedure: as §1
Experiment [6] deals with T2, WNV protease. As to the kind of experiment: WNV protease assay (analogous procedure). The experiment is classed as biochemical. Particulars: read-out: IC50 for WNNV.

T3 sequence (Q32ZE1 1499-1676): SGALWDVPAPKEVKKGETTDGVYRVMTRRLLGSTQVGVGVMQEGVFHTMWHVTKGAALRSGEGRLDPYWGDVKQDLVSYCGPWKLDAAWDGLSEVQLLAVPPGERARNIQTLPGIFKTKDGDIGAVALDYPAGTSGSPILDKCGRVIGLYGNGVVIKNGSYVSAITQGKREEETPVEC
T3 sequence (Q32ZE1 1421-1460): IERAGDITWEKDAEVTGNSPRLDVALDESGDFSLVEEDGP
T2 sequence (P06935 1424-1463): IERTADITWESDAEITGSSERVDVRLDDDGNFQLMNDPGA
T2 sequence (P06935 1502-1679): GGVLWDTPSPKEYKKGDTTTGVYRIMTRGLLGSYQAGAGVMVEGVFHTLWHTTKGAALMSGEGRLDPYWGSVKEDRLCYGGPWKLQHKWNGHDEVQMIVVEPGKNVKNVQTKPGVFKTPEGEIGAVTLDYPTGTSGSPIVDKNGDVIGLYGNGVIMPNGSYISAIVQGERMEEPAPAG
T1 sequence (P29990 1398-1437): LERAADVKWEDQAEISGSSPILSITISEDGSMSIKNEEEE
T1 sequence (P29990 1476-1653): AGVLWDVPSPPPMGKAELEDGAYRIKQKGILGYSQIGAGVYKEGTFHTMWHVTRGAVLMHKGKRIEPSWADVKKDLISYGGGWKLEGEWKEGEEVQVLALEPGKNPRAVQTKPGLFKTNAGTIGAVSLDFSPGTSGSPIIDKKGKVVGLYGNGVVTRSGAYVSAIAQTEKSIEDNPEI

As a reminder, the inhibition is the change of the read-out against control, counted positive when it falls. As usually defined, the IC50 is the concentration needed to halve the response being measured. As for `CCCCCCCCCCCCCCCCCCCC(=O)N[C@@H](CCCCN)C(=O)N1CCC[C@H]1C(=O)N[C@@H](C)C(=O)N[C@@H](CCCCN)C(N)=O` [compound 125] (Arachidoyl-KPAK-NH2), the figures for the inhibition at 1 µM in experiment [1] (at 1 μM) and in experiment [3] (at 1 μM) were not below 20% and not below 10%, respectively. In addition, the inhibition at 50 µM in experiment [1] is not below 25%; in experiment [2], not below 25%; in experiment [3] (at 50 μM) it was not below 65%. The IC50 in experiment [3] was not above 25 µM; in experiment [6], not above 40 µM. In addition, the inhibition at 5 µM in experiment [4] (at 5 μM) was less than 5%; in experiment [5] (at 5 μM) it was less than 10%. The inhibition at 25 µM in experiment [5] (at 25 μM) was less than 20%.

`CCCCCCCCCCCCCCCC(=O)N[C@@H](CCCCN)CN1CCC[C@H]1C(=O)N[C@@H](C)C(=O)N[C@H](Cc1c[nH]c2ccccc12)C(N)=O` [compound 122]: the inhibition at 50 µM in experiment [1] was not below 25%; in experiment [2], not below 25%; in experiment [3] (at 50 μM) it was not below 65%. Also, the IC50 in experiment [3] was not above 25 µM; in experiment [6] it was not above 40 µM. In addition, the inhibition at 5 µM is less than 5% in experiment [4] (at 5 μM) and less than 10% in experiment [5] (at 5 μM). In addition, in experiment [5] (at 25 μM), the inhibition at 25 µM is less than 20%.

Regarding `CCCCCCCCCCCCCCCC(=O)N[C@H](CCCCN)C(=O)N[C@@H](C)C(=O)N[C@@H](C)C(=O)N[C@@H](CCCCN)C(N)=O` [compound 115] (Palmitoyl-[dK]AAK-NH2), the inhibition at 50 µM is not below 25% in experiment [1], not below 25% in experiment [2] and not below 65% in experiment [3] (at 50 μM). For the same molecule, the IC50 in experiment [3] is not above 25 µM; in experiment [6], not above 40 µM. Further, the inhibition at 1 µM in experiment [3] (at 1 μM) was not below 10%. Further, the values for the inhibition at 5 µM in experiment [4] (at 5 μM) and in experiment [5] (at 5 μM) were less than 5% and less than 10%, respectively. In experiment [5] (at 25 μM), the inhibition at 25 µM was less than 20%.

As for `CCCCCCCCCCCCCCCC(=O)N[C@@H](CCCCN)C(=O)N[C@@H](C)C(=O)N[C@@H](C)C(=O)N[C@H](Cc1c[nH]cn1)C(N)=O` [compound 171] (Palmitoyl-KAA[dH]-NH2), the inhibition at 50 µM was not below 25% in experiment [1], not below 25% in experiment [2] and not below 65% in experiment [3] (at 50 μM). Further, the results for the IC50 in experiment [3] and in experiment [6] were not above 25 µM and not above 40 µM, respectively. The inhibition at 5 µM in experiment [4] (at 5 μM) is less than 5%; in experiment [5] (at 5 μM), less than 10%. Moreover, in experiment [5] (at 25 μM), the inhibition at 25 µM is less than 20%.

With `CCCCCCCCCCCCCCCC(=O)N[C@@H](CCCCN)C(=O)N[C@@H](C)C(=O)N[C@@H](C)C(=O)N[C@@H](CCCCN)C(=O)c1ccccc1` [compound 137], the inhibition at 50 µM in experiment [1] was not below 25%; in experiment [2] it was not below 25%; in experiment [3], not below 65%. Also, the inhibition at 1 µM is not below 20% in experiment [1], not below 10% in experiment [2] and not below 10% in experiment [3]. Also, the values for the IC50 in experiment [3] and in experiment [6] were not above 25 µM and not above 40 µM, respectively. Moreover, the inhibition at 5 µM in experiment [4] was less than 5%; in experiment [5], less than 10%. Besides, in experiment [5], the inhibition at 25 µM is less than 20%.

Consider `CCCCCCCCCCCCCCCC(=O)N[C@@H](CCCCN)C(=O)N[C@@H](C)C(=O)N[C@@H](C)C(=O)N[C@@H](Cc1c[nH]c2ccccc12)C(N)=O` [compound 92] (Palmitoyl-KAAW-NH2), for which the inhibition at 50 µM in experiment [1] is not below 25%; in experiment [2] it was not below 25%; in experiment [3] (at 50 μM), not below 65%. Also, the IC50 in experiment [3] was not above 25 µM; in experiment [6], not above 40 µM. Moreover, the inhibition at 1 µM in experiment [3] (at 1 μM) is not below 10%. The inhibition at 5 µM in experiment [4] (at 5 μM) was less than 5%; in experiment [5] (at 5 μM), less than 10%. Also, the inhibition at 25 µM in experiment [5] (at 25 μM) is less than 20%.

`CCCCCCCCCCCCCCCC(=O)N[C@@H](CCCCN)C(=O)N[C@@H](C)C(=O)N[C@@H](CCCCN)C(C)=O` [compound 175]: the inhibition at 50 µM in experiment [1] was not below 25%; in experiment [2], not below 25%; in experiment [3] (at 50 μM), not below 65%. Moreover, the IC50 in experiment [3] is not above 25 µM; in experiment [6], not above 40 µM. For the same molecule, the figures for the inhibition at 5 µM in experiment [4] (at 5 μM) and in experiment [5] (at 5 μM) were less than 5% and less than 10%, respectively. For the same molecule, the inhibition at 25 µM in experiment [5] (at 25 μM) was less than 20%.

In the case of `CCCCCCCCCCCCCCCC(=O)N[C@@H](CCCCN)C(=O)N1CCC[C@H]1C(=O)N[C@@H](C)C(=O)N[C@H](Cc1ccccc1)C(N)=O` [compound 123] (Palmitoyl-KPA[dF]-NH2), the inhibition at 50 µM in experiment [1] was not below 25%; in experiment [2], not below 25%; in experiment [3] (at 50 μM), not below 65%. Also, the IC50 was not above 25 µM in experiment [3] and not above 40 µM in experiment [6]. The inhibition at 1 µM in experiment [3] (at 1 μM) is not below 10%. The results for the inhibition at 5 µM in experiment [4] (at 5 μM) and in experiment [5] (at 5 μM) were less than 5% and less than 10%, respectively. The inhibition at 25 µM in experiment [5] (at 25 μM) was less than 20%.

`CCCCCCCCCCCCCCCC(=O)N[C@@H](CCCCN)C(=O)N1CCC[C@H]1C(=O)N[C@@H](C)C(=O)N[C@@H](CCc1ccccc1)C(=O)C(N)=O` [compound 6]: the inhibition at 50 µM is not below 25% in experiment [1], not below 25% in experiment [2] and not below 65% in experiment [3]. The values for the IC50 in experiment [3] and in experiment [6] were not above 25 µM and not above 40 µM, respectively. The inhibition at 5 µM in experiment [4] was less than 5%; in experiment [5] it was less than 10%. Moreover, the inhibition at 25 µM in experiment [5] is less than 20%.

For the molecule `CCCCCCCCCCCCCCCC(=O)N[C@@H](CCCCN)C(=O)N1CCC[C@H]1C(=O)N[C@@H](C)C(=O)N[C@@H](C(N)=O)c1ccc(OCc2ccccc2)cc1` [compound 129], the results for the inhibition at 50 µM in experiment [1], in experiment [2] and in experiment [3] were not below 25%, not below 25% and not below 65%, respectively. The inhibition at 1 µM in experiment [1] is not below 20%; in experiment [3], not below 10%. Besides, the results for the IC50 in experiment [3] and in experiment [6] were not above 25 µM and not above 40 µM, respectively. Moreover, the inhibition at 5 µM in experiment [4] was less than 5%; in experiment [5], less than 10%. The inhibition at 25 µM in experiment [5] is less than 20%.

Turning to `CCCCCCCCCCCCCCCC(=O)N[C@@H](CCCCN)C(=O)N[C@@H](C)C(=O)N[C@@H](C)C(=O)N[C@@H](C=O)CCCCN` [compound 181] (Palmitoyl-KAA[dK]-aldehyde), the inhibition at 50 µM in experiment [1] and in experiment [2] was not below 25% in each case. Besides, in experiment [4] (at 5 μM), the inhibition at 5 µM was less than 5%. For the same molecule, in experiment [5] (at 25 μM), the inhibition at 25 µM is less than 20%. Besides, the IC50 in experiment [6] was not above 40 µM.

In the case of `CCCCCCCCCCCCCCCC(=O)N[C@@H](CCCCN)C(=O)N[C@@H](C)C(=O)N[C@@H](C)C(=O)N[C@@H](CCc1ccccc1)C(N)=O` [compound 90] (Palmitoyl-KAA[hPhe]-NH2), the inhibition at 50 µM in experiment [1] and in experiment [2] was not below 25% in each case. In addition, the inhibition at 5 µM was less than 5% in experiment [4] (at 5 μM) and less than 10% in experiment [5] (at 5 μM). Further, in experiment [5] (at 25 μM), the inhibition at 25 µM was less than 20%. Besides, in experiment [6], the IC50 is not above 40 µM.

For the molecule `CCCCCCCCCCCCCCCCCCCC(=O)N[C@@H](CCCCN)C(=O)N[C@@H](C)C(=O)N[C@@H](C)C(=O)N[C@H](CCCCN)C(N)=O` [compound 132] (Arachidoyl-KAA[dK]-NH2), the values for the inhibition at 1 µM in experiment [1] (at 1 μM) and in experiment [2] were not below 20% and not below 10%, respectively. Besides, the inhibition at 50 µM in experiment [1] and in experiment [2] was not below 25% throughout. Further, the inhibition at 5 µM in experiment [4] (at 5 μM) is less than 5%. For the same molecule, the inhibition at 25 µM in experiment [5] (at 25 μM) is less than 20%. The IC50 in experiment [6] was not above 40 µM.

Source of the values: patent US20250059231A1, “Protease inhibitors” (priority 2021, published 2025).
